Assay: mn = molality of the nth substance listed, in mol/kg
Details: 298.15 K, 101 kPa, Liquid, Rudolph densimeter

[Cl-].[Cl-].[Mg+2] [magnesium chloride] + CO
Details | mass density [kg/m3]
m1 = 0.0105 | 788.19
m1 = 0.021 | 789.37
m1 = 0.0316 | 790.72
m1 = 0.0422 | 791.97
m1 = 0.0528 | 793.43
m1 = 0.0581 | 794.28
m1 = 0.0634 | 795.32
m1 = 0.0687 | 796.28
m1 = 0.074 | 796.94
m1 = 0.0794 | 797.82
m1 = 0.0847 | 798.59
m1 = 0.09 | 799.4
m1 = 0.0954 | 800.16

O=[N+]([O-])[O-].O=[N+]([O-])[O-].[Mg+2] [magnesium nitrate] + CO
Details | mass density [kg/m3]
m1 = 0.0067 | 787.75
m1 = 0.0135 | 788.44
m1 = 0.0203 | 789.09
m1 = 0.0271 | 789.77
m1 = 0.0339 | 790.43
m1 = 0.0373 | 790.75
m1 = 0.0407 | 791.07
m1 = 0.0441 | 791.39
m1 = 0.0475 | 791.72
m1 = 0.051 | 792.03
m1 = 0.0544 | 792.33
m1 = 0.0578 | 792.66
m1 = 0.0612 | 792.95
m1 = 0.0647 | 793.26
m1 = 0.0681 | 793.56

O=[N+]([O-])[O-].O=[N+]([O-])[O-].[Zn+2] [nitric acid, zinc salt] + CO
Details | mass density [kg/m3]
m1 = 0.0053 | 787.73
m1 = 0.0106 | 788.43
m1 = 0.0159 | 789.11
m1 = 0.0212 | 789.81
m1 = 0.0265 | 790.47
m1 = 0.0292 | 790.79
m1 = 0.0319 | 791.13
m1 = 0.0346 | 791.46
m1 = 0.0372 | 791.79
m1 = 0.0399 | 792.11
m1 = 0.0426 | 792.44
m1 = 0.0453 | 792.76
m1 = 0.048 | 793.07
m1 = 0.0507 | 793.39
m1 = 0.0533 | 793.72
m1 = 0.0804 | 796.87

Reference: the NIST ThermoML archive (doi:10.1016/j.fluid.2014.07.005)
